Drawing on patent publication US20240400577A1, “MODULATORS OF PROTEIN KINASES” (VIBLIOME THERAPEUTICS, LLC, priority 2021, published 2024), this text covers inhibition for five compounds.

Broadly, the inhibition is how much of the control response was suppressed. High values mean a strong effect, low ones a weak effect.

Holding throughout (test): Kinase panel enzymatic inhibition assay (Nanosyn)
Common to all, as to type: biochemical
Details in all cases: compound 5 μM; ATP at Km; 30-minute pre-incubation

One assay concerns the target T1, CSF1R (Homo sapiens, UniProt P07333).
T1 construct: purchased Nanosyn (contract screening)
In outline: (§1)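 Inhibition is expressed as percent at 5 μM or as IC50, with ATP set at the Km of each kinase and a 30-minute compound pre-incubation. Detection used an accepted enzymatic format such as Caliper mobility shift.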

Another assay addresses T2, KDR (Homo sapiens, UniProt P35968).
T2 construct: purchased Nanosyn (contract screening)
The method in brief: as §1

The target in the next assay is T3, LCK (Homo sapiens, UniProt P06239).
T3 construct: purchased Nanosyn (contract screening)
The method in brief:
as §1

The next assay concerns the target T4, YES (Homo sapiens, UniProt P07947).
T4 construct: Nanosyn (contract laboratory that ran the panel)
The method in brief: as §1

In the next assay the target is T5, BRAF (Homo sapiens, UniProt P15056).
T5 construct: purchased Nanosyn (contract screening)
In outline: as §1

Another assay concerns the target T6, SGK2 (Homo sapiens, UniProt Q9HBY8).
T6 construct: Nanosyn (contract laboratory that ran the panel)
T6 sequence (Q9HBY8 1-367): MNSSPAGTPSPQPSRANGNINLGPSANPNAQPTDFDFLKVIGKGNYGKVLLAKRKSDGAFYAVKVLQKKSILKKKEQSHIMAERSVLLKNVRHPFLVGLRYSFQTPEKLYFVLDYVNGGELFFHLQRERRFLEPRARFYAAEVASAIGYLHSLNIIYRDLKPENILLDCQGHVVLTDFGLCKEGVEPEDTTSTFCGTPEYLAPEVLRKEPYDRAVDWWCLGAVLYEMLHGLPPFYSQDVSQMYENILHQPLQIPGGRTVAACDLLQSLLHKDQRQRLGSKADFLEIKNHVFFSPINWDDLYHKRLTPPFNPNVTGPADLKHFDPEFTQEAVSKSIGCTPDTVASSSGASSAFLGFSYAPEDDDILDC
The method in brief:
as §1

In a further assay the target is T7, TNIK (Homo sapiens, UniProt Q9UKE5).
T7 construct: Nanosyn (contract laboratory that ran the panel)
In outline:
as §1

For a further assay, the target named is T8, PKCb1 (Homo sapiens, UniProt P05771).
T8 construct: Nanosyn (contract laboratory that ran the panel)
The method in brief:
as §1

The next assay deals with T9, KIT (Homo sapiens, UniProt P10721).
T9 construct: purchased Nanosyn (contract screening)
In outline:
as §1

A further assay deals with T10, ARAF (Homo sapiens, UniProt P10398).
T10 construct: purchased Nanosyn (contract screening)
T10 sequence (P10398 1-606): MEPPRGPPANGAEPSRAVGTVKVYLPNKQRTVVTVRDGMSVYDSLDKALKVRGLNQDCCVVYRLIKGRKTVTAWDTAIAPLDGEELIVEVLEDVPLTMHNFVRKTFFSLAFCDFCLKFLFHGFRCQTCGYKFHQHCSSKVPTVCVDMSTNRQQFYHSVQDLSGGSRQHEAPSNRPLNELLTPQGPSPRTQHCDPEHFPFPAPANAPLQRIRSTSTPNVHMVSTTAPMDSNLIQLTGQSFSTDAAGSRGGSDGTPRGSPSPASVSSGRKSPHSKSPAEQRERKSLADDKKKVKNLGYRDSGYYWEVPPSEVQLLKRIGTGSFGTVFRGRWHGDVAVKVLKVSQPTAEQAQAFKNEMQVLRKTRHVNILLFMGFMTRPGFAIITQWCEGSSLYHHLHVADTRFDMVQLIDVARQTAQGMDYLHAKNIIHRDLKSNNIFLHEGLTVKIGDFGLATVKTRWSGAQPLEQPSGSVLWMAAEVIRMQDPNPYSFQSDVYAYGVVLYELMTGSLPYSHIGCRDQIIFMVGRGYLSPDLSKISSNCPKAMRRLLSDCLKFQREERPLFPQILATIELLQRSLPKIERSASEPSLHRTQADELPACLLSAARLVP
The method in brief:
as §1

A further assay concerns the target T11, LYNb (Homo sapiens, UniProt P07948).
T11 construct: purchased Nanosyn (contract screening)
In outline:
as §1

In the next assay the target is T12, MNK2 (Homo sapiens, UniProt Q9HBH9).
T12 construct: Nanosyn (contract laboratory that ran the panel)
In outline:
as §1

Another assay addresses T13, PDGFRb (Homo sapiens, UniProt P09619).
T13 construct: Nanosyn (contract laboratory that ran the panel)
The method in brief:
as §1

For another assay, the target named is T14, DDR1 (Homo sapiens, UniProt Q08345).
T14 construct: purchased Nanosyn (contract screening)
The method in brief:
as §1

The next assay addresses T15, SRC (Homo sapiens, UniProt P12931).
T15 construct: Nanosyn (contract laboratory that ran the panel)
In outline:
as §1

For another assay, the target named is T16, BRK (Homo sapiens, UniProt Q13882).
T16 construct: purchased Nanosyn (contract screening)
The method in brief:
as §1

In a further assay the target is T17, p38a (Homo sapiens, UniProt Q16539).
T17 construct: Nanosyn (contract laboratory that ran the panel)
In outline: as §1

The target in the next assay is T18, RET (Homo sapiens, UniProt P07949).
T18 construct: Nanosyn (contract laboratory that ran the panel)
The method in brief:
as §1

The target in the next assay is T19, ZAK (Homo sapiens, UniProt Q9NYL2).
T19 construct: Nanosyn (contract laboratory that ran the panel)
In outline:
as §1

In a further assay the target is T20, FGR (Homo sapiens, UniProt P09769).
T20 construct: purchased Nanosyn (contract screening)
In outline: as §1

The target in a further assay is T21, p38b (Homo sapiens, UniProt Q15759).
T21 construct: Nanosyn (contract laboratory that ran the panel)
In outline:
as §1

Where only a bound is given, the exact number is not on record here.

T13 sequence (P09619 33-1106): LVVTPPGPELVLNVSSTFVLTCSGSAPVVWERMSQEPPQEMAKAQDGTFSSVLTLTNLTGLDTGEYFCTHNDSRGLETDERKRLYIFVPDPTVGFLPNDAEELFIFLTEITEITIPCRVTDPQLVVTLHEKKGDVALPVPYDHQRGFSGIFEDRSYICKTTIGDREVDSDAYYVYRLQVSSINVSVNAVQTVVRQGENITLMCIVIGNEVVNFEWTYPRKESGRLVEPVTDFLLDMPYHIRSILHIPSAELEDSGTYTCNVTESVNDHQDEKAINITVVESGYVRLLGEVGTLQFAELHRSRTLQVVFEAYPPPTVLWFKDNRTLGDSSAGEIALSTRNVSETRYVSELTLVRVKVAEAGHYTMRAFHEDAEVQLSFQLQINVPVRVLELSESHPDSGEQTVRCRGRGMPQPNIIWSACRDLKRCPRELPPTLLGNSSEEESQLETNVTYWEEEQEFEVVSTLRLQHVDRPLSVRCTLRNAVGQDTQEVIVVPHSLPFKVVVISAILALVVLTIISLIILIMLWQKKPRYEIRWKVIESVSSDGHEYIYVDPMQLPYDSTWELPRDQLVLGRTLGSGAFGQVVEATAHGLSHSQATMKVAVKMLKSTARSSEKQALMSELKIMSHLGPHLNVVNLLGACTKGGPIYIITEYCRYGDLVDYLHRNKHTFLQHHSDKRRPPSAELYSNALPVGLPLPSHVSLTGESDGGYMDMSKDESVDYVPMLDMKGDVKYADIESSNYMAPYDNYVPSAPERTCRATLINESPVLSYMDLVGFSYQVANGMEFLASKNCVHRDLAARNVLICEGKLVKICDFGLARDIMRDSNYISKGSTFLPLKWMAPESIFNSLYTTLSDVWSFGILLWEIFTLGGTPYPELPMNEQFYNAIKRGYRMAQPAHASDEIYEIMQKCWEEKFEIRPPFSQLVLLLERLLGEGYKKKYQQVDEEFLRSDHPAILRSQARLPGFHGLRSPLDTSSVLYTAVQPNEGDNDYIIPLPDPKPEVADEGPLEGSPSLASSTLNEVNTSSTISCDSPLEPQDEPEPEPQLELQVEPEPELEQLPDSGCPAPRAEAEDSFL
T16 sequence (Q13882 whole entry): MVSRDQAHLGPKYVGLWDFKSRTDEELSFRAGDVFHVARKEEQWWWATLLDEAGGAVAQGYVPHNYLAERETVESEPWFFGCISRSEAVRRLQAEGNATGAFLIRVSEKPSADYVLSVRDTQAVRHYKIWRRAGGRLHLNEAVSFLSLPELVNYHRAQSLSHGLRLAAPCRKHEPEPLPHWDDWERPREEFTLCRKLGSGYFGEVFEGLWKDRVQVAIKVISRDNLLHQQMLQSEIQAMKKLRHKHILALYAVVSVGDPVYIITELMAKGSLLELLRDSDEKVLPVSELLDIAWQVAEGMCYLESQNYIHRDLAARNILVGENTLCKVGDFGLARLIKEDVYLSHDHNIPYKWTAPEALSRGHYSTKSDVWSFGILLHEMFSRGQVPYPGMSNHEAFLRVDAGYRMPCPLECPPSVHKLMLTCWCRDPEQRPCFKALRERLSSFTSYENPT
T2 sequence (P35968 20-1356): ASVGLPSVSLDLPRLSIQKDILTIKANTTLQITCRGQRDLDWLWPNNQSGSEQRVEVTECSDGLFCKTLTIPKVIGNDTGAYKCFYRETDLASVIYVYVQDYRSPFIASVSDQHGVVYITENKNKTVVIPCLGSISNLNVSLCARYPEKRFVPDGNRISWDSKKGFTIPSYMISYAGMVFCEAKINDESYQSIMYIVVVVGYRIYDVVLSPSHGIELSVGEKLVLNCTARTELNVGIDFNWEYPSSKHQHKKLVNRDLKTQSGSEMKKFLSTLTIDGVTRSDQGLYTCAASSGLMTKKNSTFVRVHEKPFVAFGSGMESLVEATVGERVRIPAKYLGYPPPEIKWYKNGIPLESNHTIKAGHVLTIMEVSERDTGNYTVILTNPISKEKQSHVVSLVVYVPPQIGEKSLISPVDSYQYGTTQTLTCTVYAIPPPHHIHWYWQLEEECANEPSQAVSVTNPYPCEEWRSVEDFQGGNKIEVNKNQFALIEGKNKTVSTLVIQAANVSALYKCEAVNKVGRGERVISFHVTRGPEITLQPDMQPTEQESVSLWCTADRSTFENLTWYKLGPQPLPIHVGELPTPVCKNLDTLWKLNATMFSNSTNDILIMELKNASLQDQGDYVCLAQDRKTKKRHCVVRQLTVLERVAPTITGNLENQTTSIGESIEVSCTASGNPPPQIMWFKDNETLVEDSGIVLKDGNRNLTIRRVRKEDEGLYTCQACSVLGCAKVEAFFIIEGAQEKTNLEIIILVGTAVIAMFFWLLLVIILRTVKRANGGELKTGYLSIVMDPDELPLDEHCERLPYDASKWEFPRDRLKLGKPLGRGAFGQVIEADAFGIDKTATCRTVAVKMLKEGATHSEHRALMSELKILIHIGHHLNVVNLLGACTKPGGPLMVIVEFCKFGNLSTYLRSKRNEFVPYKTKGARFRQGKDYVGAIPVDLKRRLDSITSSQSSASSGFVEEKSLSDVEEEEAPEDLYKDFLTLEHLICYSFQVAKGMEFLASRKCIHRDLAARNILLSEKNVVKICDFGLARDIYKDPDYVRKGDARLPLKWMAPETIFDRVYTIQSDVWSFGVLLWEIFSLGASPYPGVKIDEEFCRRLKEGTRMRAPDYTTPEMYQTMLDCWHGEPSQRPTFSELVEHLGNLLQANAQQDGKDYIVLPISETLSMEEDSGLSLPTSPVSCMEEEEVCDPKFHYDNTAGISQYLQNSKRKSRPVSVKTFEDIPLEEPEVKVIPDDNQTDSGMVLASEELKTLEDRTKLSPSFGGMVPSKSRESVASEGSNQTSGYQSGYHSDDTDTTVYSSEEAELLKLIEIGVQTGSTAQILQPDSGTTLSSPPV
T5 sequence (P15056 whole entry): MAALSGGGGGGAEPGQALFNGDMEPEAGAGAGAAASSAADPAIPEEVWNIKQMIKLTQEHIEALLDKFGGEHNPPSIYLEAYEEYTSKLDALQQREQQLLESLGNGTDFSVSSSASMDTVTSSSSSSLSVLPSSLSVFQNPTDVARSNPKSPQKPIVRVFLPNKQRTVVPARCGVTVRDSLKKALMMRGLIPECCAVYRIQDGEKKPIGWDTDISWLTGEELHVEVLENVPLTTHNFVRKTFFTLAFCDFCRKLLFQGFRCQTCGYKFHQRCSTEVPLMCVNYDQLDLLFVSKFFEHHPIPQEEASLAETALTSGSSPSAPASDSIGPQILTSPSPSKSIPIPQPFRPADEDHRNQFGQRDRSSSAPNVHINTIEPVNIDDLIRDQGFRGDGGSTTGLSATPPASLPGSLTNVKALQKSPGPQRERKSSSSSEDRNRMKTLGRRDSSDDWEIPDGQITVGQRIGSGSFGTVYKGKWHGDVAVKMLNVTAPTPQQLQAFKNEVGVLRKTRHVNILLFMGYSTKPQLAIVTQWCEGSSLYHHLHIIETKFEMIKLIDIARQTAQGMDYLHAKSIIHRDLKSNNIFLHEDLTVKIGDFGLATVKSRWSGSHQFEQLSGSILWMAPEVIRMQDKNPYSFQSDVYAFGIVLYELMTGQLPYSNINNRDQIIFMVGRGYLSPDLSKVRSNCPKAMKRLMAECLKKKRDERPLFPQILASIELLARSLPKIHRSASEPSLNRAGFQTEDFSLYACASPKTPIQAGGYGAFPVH
T15 sequence (P12931 whole entry): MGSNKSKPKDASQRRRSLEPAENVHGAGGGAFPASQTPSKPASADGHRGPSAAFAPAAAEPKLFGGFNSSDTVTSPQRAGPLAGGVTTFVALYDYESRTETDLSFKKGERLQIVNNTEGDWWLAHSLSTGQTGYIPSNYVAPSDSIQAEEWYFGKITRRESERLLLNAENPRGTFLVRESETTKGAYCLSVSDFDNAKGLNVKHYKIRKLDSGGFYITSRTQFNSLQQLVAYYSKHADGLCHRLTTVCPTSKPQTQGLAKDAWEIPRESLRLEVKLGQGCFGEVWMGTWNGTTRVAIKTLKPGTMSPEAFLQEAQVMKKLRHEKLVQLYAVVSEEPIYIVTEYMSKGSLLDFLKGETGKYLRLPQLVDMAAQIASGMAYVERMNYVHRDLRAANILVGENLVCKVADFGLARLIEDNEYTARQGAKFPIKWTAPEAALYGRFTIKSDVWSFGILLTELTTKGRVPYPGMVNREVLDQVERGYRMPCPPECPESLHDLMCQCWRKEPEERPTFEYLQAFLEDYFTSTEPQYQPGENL
T3 sequence (P06239 whole entry): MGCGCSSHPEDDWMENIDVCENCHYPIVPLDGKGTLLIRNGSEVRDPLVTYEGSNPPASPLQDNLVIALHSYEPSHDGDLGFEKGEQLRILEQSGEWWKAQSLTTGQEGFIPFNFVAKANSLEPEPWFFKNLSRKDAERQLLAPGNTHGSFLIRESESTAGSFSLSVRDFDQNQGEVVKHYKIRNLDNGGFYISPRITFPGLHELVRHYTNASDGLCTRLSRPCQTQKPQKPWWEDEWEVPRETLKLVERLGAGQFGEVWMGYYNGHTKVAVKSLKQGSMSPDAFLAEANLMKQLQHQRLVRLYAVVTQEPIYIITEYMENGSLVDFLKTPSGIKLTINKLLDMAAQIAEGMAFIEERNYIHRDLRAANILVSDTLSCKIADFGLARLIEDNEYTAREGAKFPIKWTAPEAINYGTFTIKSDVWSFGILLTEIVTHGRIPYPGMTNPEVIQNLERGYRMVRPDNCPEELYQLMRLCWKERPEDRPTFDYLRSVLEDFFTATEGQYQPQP
T21 sequence (Q15759 whole entry): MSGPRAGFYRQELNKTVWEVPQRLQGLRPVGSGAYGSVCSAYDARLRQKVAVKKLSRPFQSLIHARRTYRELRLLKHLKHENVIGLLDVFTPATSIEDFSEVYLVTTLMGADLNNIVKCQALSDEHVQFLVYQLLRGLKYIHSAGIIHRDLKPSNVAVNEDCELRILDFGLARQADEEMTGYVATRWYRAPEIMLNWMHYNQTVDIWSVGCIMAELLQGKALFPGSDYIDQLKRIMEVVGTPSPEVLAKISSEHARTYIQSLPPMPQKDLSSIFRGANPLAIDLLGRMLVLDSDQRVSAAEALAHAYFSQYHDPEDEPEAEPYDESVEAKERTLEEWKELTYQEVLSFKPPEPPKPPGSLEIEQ

As for `CSc1cc(C(=O)Nc2cc(Oc3ccnc(C(=O)NC4CNC4)c3)ccc2F)nn1-c1ccc(F)cc1` [Ex8, N-(azetidin-3-yl)-4-(4-fluoro-3-(1-(4-fluorophenyl)-5-(methylthio)-1H-pyrazole-3-carboxamido)phenoxy)picolinamide], the inhibition at 5 µM is under 79% at CSF1R; under 79% against KDR; under 79% on LCK; under 79% against YES; 90 to 94% against BRAF; under 79% at SGK2. For the same compound, the inhibition at 5 µM is 90 to 94% at TNIK; 80 to 89% against PKCb1; under 79% against KIT; under 79% against ARAF; under 79% against LYNb; 80 to 89% against MNK2. The inhibition at 5 µM against PDGFRb, on DDR1, on SRC, against BRK, at p38a and against RET was under 79% throughout. For the same compound, the inhibition at 5 µM against ZAK, at FGR and against p38b was under 79% each time.

For the compound `Cc1ccc(NC(=O)c2cc(S(C)(=O)=O)n(-c3ccc(F)cc3)n2)cc1-c1cc(OCCO)nc(N2CCOCC2)c1` [Ex9, 1-(4-fluorophenyl)-N-(3-(2-(2-hydroxyethoxy)-6-morpholinopyridin-4-yl)-4-methylphenyl)-5-(methylsulfonyl)-1H-pyrazole-3-carboxamide], the inhibition at 5 µM against CSF1R is under 79%; at KDR it was under 79%; at LCK it was under 79%; against YES it was under 79%; against BRAF, at least 95%; against SGK2 it was under 79%. In addition, the inhibition at 5 µM at TNIK was under 79%; at PKCb1 it was under 79%; on KIT it was under 79%; on ARAF, at least 95%; against LYNb it was under 79%; against MNK2, under 79%. The inhibition at 5 µM against PDGFRb was under 79%; against DDR1, at least 95%; at SRC it was under 79%; against BRK, under 79%; against p38a, under 79%; against RET it was under 79%. The inhibition at 5 µM was under 79% at ZAK, under 79% against FGR and 80 to 89% at p38b.

Turning to `Cc1ccc(NC(=O)c2cc([S+](C)[O-])n(-c3ccc(F)cc3)n2)cc1-c1cc(OCCO)nc(N2CCOCC2)c1` (stereo not drawn) [Ex10, 1-(4-fluorophenyl)-N-(3-(2-(2-hydroxyethoxy)-6-morpholinopyridin-4-yl)-4-methylphenyl)-5-(methylsulfinyl)-1H-pyrazole-3-carboxamide], the inhibition at 5 µM against CSF1R was under 79%; against KDR it was under 79%; on LCK it was under 79%; at YES, under 79%; against BRAF it was at least 95%; on SGK2, under 79%. Besides, the inhibition at 5 µM is under 79% against TNIK; under 79% on PKCb1; under 79% against KIT; at least 95% against ARAF; under 79% against LYNb; under 79% against MNK2. Also, the inhibition at 5 µM was under 79% against PDGFRb; at least 95% against DDR1; under 79% on SRC; under 79% against BRK; under 79% at p38a; under 79% at RET. The inhibition at 5 µM at ZAK, against FGR and against p38b was under 79% throughout.

In the case of `Cc1ccc(NC(=O)c2cc([S+](C)[O-])n(-c3ccc(F)cc3)n2)cc1-c1cc(N2CCOCC2)c(=O)n(C)c1` (stereo not drawn) [Ex11, 1-(4-fluorophenyl)-N-(4-methyl-3-(1-methyl-5-morpholino-6-oxo-1,6-dihydropyridin-3-yl)phenyl)-5-(methylsulfinyl)-1H-pyrazole-3-carboxamide], the inhibition at 5 µM is under 79% against CSF1R; under 79% against KDR; under 79% against LCK; under 79% at YES; at least 95% at BRAF; under 79% against SGK2. For the same compound, the inhibition at 5 µM against TNIK is under 79%; against PKCb1, under 79%; against KIT, under 79%; against ARAF, at least 95%; against LYNb it was under 79%; on MNK2, under 79%. The inhibition at 5 µM at PDGFRb is under 79%; on DDR1, under 79%; on SRC, under 79%; against BRK, under 79%; at p38a it was at least 95%; on RET, under 79%. Further, the inhibition at 5 µM at ZAK, against FGR and on p38b was under 79% each time.

`Cc1ccc(NC(=O)c2cc(S(C)(=O)=O)n(-c3ccc(F)cc3)n2)cc1-c1cc(N2CCOCC2)c(=O)n(C)c1` [Ex12, 1-(4-fluorophenyl)-N-(4-methyl-3-(1-methyl-5-morpholino-6-oxo-1,6-dihydropyridin-3-yl)phenyl)-5-(methylsulfonyl)-1H-pyrazole-3-carboxamide]: the inhibition at 5 µM against CSF1R is under 79%; at KDR it was under 79%; on LCK, under 79%; against YES, under 79%; against BRAF, at least 95%; against SGK2, under 79%. Moreover, the inhibition at 5 µM at TNIK is under 79%; against PKCb1 it was under 79%; at KIT it was under 79%; on ARAF, at least 95%; against LYNb, under 79%; at MNK2, under 79%. The inhibition at 5 µM was under 79% against PDGFRb; 80 to 89% against DDR1; under 79% against SRC; under 79% against BRK; under 79% against p38a; under 79% against RET. Moreover, the inhibition at 5 µM at ZAK, on FGR and at p38b was under 79% each time.
